“And” between values parts separate entries of the source, which are not always exact repeats. Equal entries are not always repeated. Where two headings read alike, the source gives them in different places.
Experiment: Brain distribution study
Type: in vivo, male C57BL/6 mice
Settings: PO 20 mg/kg, male C57BL/6 mice
Protocol: Compound KL50 dosing solution: 3.39% DMSO+96.61% (10% HP-β-CD in saline) at 2 mg/mL; • 1) Weigh 17.39 mg of compound KL50 into a clean tube. • 2) Add 0.295 mL DMSO into the tube containing the compound. • 3) Vortex the tube for 3 min and sonicate it for 4 min. • 4) Add 8.400 mL 10% HP-β-CD in saline into the tube and vortex the tube for 3 min. Compound I-1 dosing solution: 3.39% DMSO+96.61% (10% HP-β-CD in saline) at 2 mg/mL; • 1) Weigh 16.86 mg Compound I-1 into a clean tube. • 2) Add 0.286 mL DMSO into the tube containing the compound. • 3) Vortex the tube for 3 min and sonicate it for 4 min. • 4) Add 8.144 mL 10% HP-β-CD in saline into the tube and vortex the tube for 3 min.
The in-vivo pharmacokinetic and brain distribution study was conducted under the following parameters. Twenty seven C57BL/6 male mice were purchased from Shanghai JiHui Laboratory Animal Co. LTD. Each mouse weighted from 16 g to 17 g. The mice were fasted overnight and fed post 4 hr sampling. Compound KL50 and Compound I-I were administered via oral gavage (PO) at a dose of 20 mg/kg (10 mL/kg). After dosing, sampling was completed at 0.083, 0.167, 0.333, 0.5, 0.75, 1, 2, 4 and 8 hr post dose, with three mice sacrificed at each time point.
Terminal bleeding for plasma and brain was completed at each time point. Approximately 110 μL blood per time point was collected into a K2EDTA tube via the facial vein. The blood sample was put on wet ice and centrifuged to obtain plasma sample (2000 g, 5 min under 4° C.) within 15 minutes. Plasma samples were acidified with 6 μL of formic acid for every 54 μL of plasma. After blood collection, a mid-line incision was made in the animal's scalp and the skin was retracted. The skull overlying the brain was removed. Then, the whole brain was collected, rinsed with cold saline, dried on filtrate paper, and weighed; and then snap frozen by placing the brain into dry-ice. Plasma samples were stored at approximately −70° C. until analysis. Brain tissue was homogenized with 3 volumes (v/w) of PBS (1% FA) and then analyzed with LC-MS/MS. The concentration of study drug was corrected with a dilution factor of four as following: Brain concentration=brain homogenate conc.×4, assuming 1 g wet brain tissue equals to 1 mL

NC(=O)c1ncn2c(=O)n(CCF)nnc12 [KL-50, 3-(2-fluoroethyl)-4-oxo-3H,4H-imidazo[4,3-d][1,2,3,5]tetrazine-8-carboxamide]
Brain Concentration/Plasma Concentration, Individuals (0.083 hr, 20 mg/kg): 0.0770 and 0.0693
brain Concentration, Individuals (0.083 hr, 20 mg/kg): 1970 ng/g and 1940 ng/g
Brain Concentration/Plasma Concentration, Individuals (0.167 hr, 20 mg/kg): 0.123 and 0.156
brain Concentration, Individuals (0.167 hr, 20 mg/kg): 2810 ng/g and 2820 ng/g
Brain Concentration/Plasma Concentration, Individuals (0.333 hr, 20 mg/kg): 0.206 and 0.213
brain Concentration, Individuals (0.333 hr, 20 mg/kg): 2980 ng/g and 4450 ng/g
Brain Concentration/Plasma Concentration, Individuals (0.5 hr, 20 mg/kg): 0.260 and 0.250
brain Concentration, Individuals (0.5 hr, 20 mg/kg): 3230 ng/g and 3830 ng/g
Brain Concentration/Plasma Concentration, Individuals (0.75 hr, 20 mg/kg): 0.278 and 0.331
brain Concentration, Individuals (0.75 hr, 20 mg/kg): 3060 ng/g and 3380 ng/g
Brain Concentration/Plasma Concentration, Individuals (1 hr, 20 mg/kg): 0.345 and 0.266
brain Concentration, Individuals (1 hr, 20 mg/kg): 2530 ng/g and 3270 ng/g
Brain Concentration/Plasma Concentration, Individuals (2 hr, 20 mg/kg): 0.347 and 0.335
brain Concentration, Individuals (2 hr, 20 mg/kg): 953 ng/g and 1530 ng/g
Brain Concentration/Plasma Concentration, Individuals (4 hr, 20 mg/kg): 0.269 and 0.250
brain Concentration, Individuals (4 hr, 20 mg/kg): 184 ng/g and 427 ng/g and 199 ng/g
Brain Concentration/Plasma Concentration, Individuals (8 hr, 20 mg/kg): 0.175 and 0.244
brain Concentration, Individuals (8 hr, 20 mg/kg): 85.3 ng/g and 18.2 ng/g and 45.2 ng/g
AUCINF (brain): 7213 ng·h/g
AUClast (brain): 7128 ng·h/g
concentration at 0.083 hr (male, C57BL/6, mouse, brain, po, 20 mg/kg, 0.083 hr, N=3, read-out: brain Concentration, Mean): 1820 ng/g
concentration at 0.083 hr (male, C57BL/6, mouse, brain, po, 20 mg/kg, 0.083 hr, read-out: brain Concentration, Individuals): 1540 ng/g
concentration at 0.167 hr (male, C57BL/6, mouse, brain, po, 20 mg/kg, 0.167 hr, N=3, read-out: brain Concentration, Mean): 2940 ng/g
concentration at 0.167 hr (male, C57BL/6, mouse, brain, po, 20 mg/kg, 0.167 hr, read-out: brain Concentration, Individuals): 3180 ng/g
concentration at 0.333 hr (male, C57BL/6, mouse, brain, po, 20 mg/kg, 0.333 hr, N=3, read-out: brain Concentration, Mean): 3690 ng/g
concentration at 0.333 hr (male, C57BL/6, mouse, brain, po, 20 mg/kg, 0.333 hr, read-out: brain Concentration, Individuals): 3630 ng/g
concentration at 0.5 hr (male, C57BL/6, mouse, brain, po, 20 mg/kg, 0.5 hr, N=3, read-out: brain Concentration, Mean): 3600 ng/g
concentration at 0.5 hr (male, C57BL/6, mouse, brain, po, 20 mg/kg, 0.5 hr, read-out: brain Concentration, Individuals): 3730 ng/g
concentration at 0.75 hr (male, C57BL/6, mouse, brain, po, 20 mg/kg, 0.75 hr, N=3, read-out: brain Concentration, Mean): 3250 ng/g
concentration at 0.75 hr (male, C57BL/6, mouse, brain, po, 20 mg/kg, 0.75 hr, read-out: brain Concentration, Individuals): 3300 ng/g
concentration at 1 hr (male, C57BL/6, mouse, brain, po, 20 mg/kg, 1 hr, N=3, read-out: brain Concentration, Mean): 2910 ng/g
concentration at 1 hr (male, C57BL/6, mouse, brain, po, 20 mg/kg, 1 hr, read-out: brain Concentration, Individuals): 2920 ng/g
concentration at 2 hr (male, C57BL/6, mouse, brain, po, 20 mg/kg, 2 hr, N=3, read-out: brain Concentration, Mean): 1140 ng/g
concentration at 2 hr (male, C57BL/6, mouse, brain, po, 20 mg/kg, 2 hr, read-out: brain Concentration, Individuals): 934 ng/g
concentration at 4 hr (male, C57BL/6, mouse, brain, po, 20 mg/kg, 4 hr, N=3): 270 ng/g
concentration at 8 hr (male, C57BL/6, mouse, brain, po, 20 mg/kg, 8 hr, N=3): 49.6 ng/g
Kp (male, C57BL/6, mouse, brain/plasma, po, 20 mg/kg, AUCbrain/AUCplasma, heading: AUCbrain/AUCplasma): 25.1%
Kp at 0.083 hr (male, C57BL/6, mouse, brain/plasma, po, 20 mg/kg, 0.083 hr, N=3, read-out: Brain Concentration/Plasma Concentration, Mean): 0.0718
Kp at 0.083 hr (male, C57BL/6, mouse, brain/plasma, po, 20 mg/kg, 0.083 hr, read-out: Brain Concentration/Plasma Concentration, Individuals): 0.0691
Kp at 0.167 hr (male, C57BL/6, mouse, brain/plasma, po, 20 mg/kg, 0.167 hr, N=3, read-out: Brain Concentration/Plasma Concentration, Mean): 0.136
Kp at 0.167 hr (male, C57BL/6, mouse, brain/plasma, po, 20 mg/kg, 0.167 hr, read-out: Brain Concentration/Plasma Concentration, Individuals): 0.13
Kp at 0.333 hr (male, C57BL/6, mouse, brain/plasma, po, 20 mg/kg, 0.333 hr, N=3, read-out: Brain Concentration/Plasma Concentration, Mean): 0.203
Kp at 0.333 hr (male, C57BL/6, mouse, brain/plasma, po, 20 mg/kg, 0.333 hr, read-out: Brain Concentration/Plasma Concentration, Individuals): 0.191
Kp at 0.5 hr (male, C57BL/6, mouse, brain/plasma, po, 20 mg/kg, 0.5 hr, N=3, read-out: Brain Concentration/Plasma Concentration, Mean): 0.257
Kp at 0.5 hr (male, C57BL/6, mouse, brain/plasma, po, 20 mg/kg, 0.5 hr, read-out: Brain Concentration/Plasma Concentration, Individuals): 0.259
Kp at 0.75 hr (male, C57BL/6, mouse, brain/plasma, po, 20 mg/kg, 0.75 hr, N=3, read-out: Brain Concentration/Plasma Concentration, Mean): 0.318
Kp at 0.75 hr (male, C57BL/6, mouse, brain/plasma, po, 20 mg/kg, 0.75 hr, read-out: Brain Concentration/Plasma Concentration, Individuals): 0.344
Kp at 1 hr (male, C57BL/6, mouse, brain/plasma, po, 20 mg/kg, 1 hr, N=3, read-out: Brain Concentration/Plasma Concentration, Mean): 0.296
Kp at 1 hr (male, C57BL/6, mouse, brain/plasma, po, 20 mg/kg, 1 hr, read-out: Brain Concentration/Plasma Concentration, Individuals): 0.278
Kp at 2 hr (male, C57BL/6, mouse, brain/plasma, po, 20 mg/kg, 2 hr, N=3, read-out: Brain Concentration/Plasma Concentration, Mean): 0.348
Kp at 2 hr (male, C57BL/6, mouse, brain/plasma, po, 20 mg/kg, 2 hr, read-out: Brain Concentration/Plasma Concentration, Individuals): 0.362
Kp at 4 hr (male, C57BL/6, mouse, brain/plasma, po, 20 mg/kg, 4 hr, N=3, read-out: Brain Concentration/Plasma Concentration, Mean): 0.231
Kp at 4 hr (male, C57BL/6, mouse, brain/plasma, po, 20 mg/kg, 4 hr, read-out: Brain Concentration/Plasma Concentration, Individuals): 0.174
Kp at 8 hr (male, C57BL/6, mouse, brain/plasma, po, 20 mg/kg, 8 hr, N=3, read-out: Brain Concentration/Plasma Concentration, Mean): 0.233
Kp at 8 hr (male, C57BL/6, mouse, brain/plasma, po, 20 mg/kg, 8 hr, read-out: Brain Concentration/Plasma Concentration, Individuals): 0.28
Cmax (mouse, brain): 3690 ng/g
MRT inf (mouse, brain): 1.57 h
Tmax (mouse, brain): 20 min
half-life (mouse, brain): 70.8 min

Reference: patent US20240400572A1, “COMPOUNDS AND METHODS FOR TREATING CANCERS THAT ARE MGMT DEFICIENT REGARDLESS OF MMR STATUS” (Yale University, priority 2021, published 2024)
